# From US9951366B2, “Cell-free protein synthesis method and device using a eukaryotic cell lysate in the presence of a caspase inhibitor and the use of a caspase inhibitor for increasing the yield and/or the stability of the synthesized proteins in such a method” (Fraunhofer-Gesellschaft zur Foerderung der angewandten …, priority 2013, dated 2018)
# Peptide text beside a SMILES is read from it. * marks the point of attachment. Cbz = O=C(OCc1ccccc1)*; CH2F = FC*
# Assays:
# [1] = tested on: cell-free eukaryotic translation system on the basis of a cell extract from Spodoptera frugiperda (Sf21) insect cells; assay: Cell-free expression of membrane proteins (ETB, Hb-EGF, bacteriorhodopsin), protein yield by scintillation measurement; format: biochemical
# Excerpt: Here, the influence of the caspase inhibitor on the expression of different membrane proteins in the eukaryotic translation system was investigated more closely. For this purpose, three different model proteins were selected: the endothelin-B receptor (ETB) is a G-protein coupled receptor with seven transmembrane domains which was used cloned into the vector pIX3.0 (Qiagen) for the expression. Furthermore, the type I transmembrane protein heparin-binding EGF-like growth factor (Hb-EGF), N-terminally fused to the melittin signal sequence and C-terminally fused to eYFP, present in the vector pIX3.0, was used for the expression. In addition, the expression of the membrane protein bacteriorhodopsin which also has seven transmembrane domains and was present in the vector pMA (GeneArt) was investigated. The three proteins were each expressed in the batch and dialysis systems without (−) and with (+) the addition of the caspase inhibitor (CI) in the presence of ^14C-leucine for 48 h (27° C.; 600 rpm, Eppendorf Thermomixer Comfort) and analyzed as in example 1. […] The expression of each of the three membrane proteins (ETB, 49.3 kDa; Hb-EGF, 51 kDa; bacteriorhodopsin, 26.9 kDa) was able to be increased in the dialysis system (comparison of the dialysis batches +CI and −CI) with the addition of the caspase inhibitor by approximately 100% (FIG. 2).
# [2] = tested on: cell-free eukaryotic translation system on the basis of a cell extract from Spodoptera frugiperda (Sf21) insect cells; assay: Cell-free expression of Mel-Hb-EGF-eYFP, protein quantity in translation mixture and vesicular fraction; format: biochemical
# Method: The three proteins were each expressed in the batch and dialysis systems without (−) and with (+) the addition of the caspase inhibitor (CI) in the presence of ^14C-leucine for 48 h (27° C.; 600 rpm, Eppendorf Thermomixer Comfort) and analyzed as in example 1. […] The expression of each of the three membrane proteins (ETB, 49.3 kDa; Hb-EGF, 51 kDa; bacteriorhodopsin, 26.9 kDa) was able to be increased in the dialysis system (comparison of the dialysis batches +CI and −CI) with the addition of the caspase inhibitor by approximately 100% (FIG. 2).
# Here, the intention was to investigate whether the increase in the total protein quantity is also associated with an increase in the quantity of membrane protein translocated and integrated into the lipid layer of the vesicles. For this purpose, the translation mixtures of Mel-Hg-EGF-eYFP were separated by means of a centrifuging step into the supernatant fluid (SN) and the vesicular fraction (VF). Aliquots (5 μl) of these samples were used for determining the quantity of de novo synthesized protein or were investigated with regard to their fluorescence properties (FIG. 4).
# FIG. 4A: The synthesis of Mel-Hb-EGF-eYFP was carried out in the batch (left) and dialysis system (right) in the absence (−) and in the presence (+) of DTT with the addition of the caspase inhibitor (Z-VAD-FMK) over 48 h at 27° C. and 600 rpm. Following the synthesis, the mixtures were separated by means of a centrifuging step into the supernatant fluid (SN) and the vesicular fraction (VF). For analysis of the fluorescence intensity of the samples, aliquots of the fractions (5 μl) were each diluted in 25 μl PBS and 25 μl of this mixture was pipetted to each cavity of the Ibidi slide and measured. Excitation of the samples was carried out at 488 nm with a phosphorimager (Typhoon TRIO+ Imager, GE Healthcare) and the emission measured at 526 nm.
# [3] = tested on: cell-free eukaryotic translation system on the basis of a cell extract from Spodoptera frugiperda (Sf21) insect cells; assay: Cell-free synthesis of SII-eYFP, fluorescence intensity (phosphorimager), Example 1; format: biochemical; conditions: dialysis system after 48 h, −V, +CI versus −CI, densitometric evaluation
# Method: The expression of the model protein was analyzed in the batch system and the dialysis system (50 μl reaction chamber; 1000 μl feeding chamber; cut-off of the membrane=10 kDa) over a period of 48 h. The translation mixtures were each incubated in the batch system and the dialysis system with (+) and without (−) insect cell vesicles (V) and with (+) and without (−) caspase inhibitor (CI) (at 27° C. and 600 rpm). The protein synthesis was carried out in the presence of the radioactively labeled amino acid ^14C-leucine in order to be able to determine the quantity of de novo synthesized target protein by means of hot TCA precipitation and scintillation measurement. The translation reactions were interrupted at particular time points (0 h, 2 h, 4 h, 24 h and 48 h) and analyzed as follows: 5 μl of the mixture was precipitated in hot TCA or ice-cold acetone in each case. A further 5 μl was resuspended in 25 μl PBS. The remaining sample volume was separated by means of a centrifuging step into the supernatant fluid (SN) and the vesicular fraction (VF). […] The samples resuspended in PBS were examined in the phosphorimager system (Typhoon TRIO+ imager, GE Healthcare) for their fluorescence intensity. For this purpose, 25 μl samples were pipetted into each cavity of the Ibidi slides and measured, the excitation of the samples taking place at 488 nm and the emission being measured at 526 nm.
# [4] = tested on: Mel-hEGFR-eYFP in microsomes of the insect cell lysate; assay: Multiple (repetitive) synthesis of Mel-hEGFR-eYFP into microsomes of the insect cell lysate; format: biochemical, Spodoptera frugiperda
# Method: A suitable method for increasing the concentration of a particular target protein in the lumen or the membrane of the insect cell vesicles lies in carrying out multiple syntheses. This procedure leads to a longer dwell time of the de novo synthesized target proteins in the translation mixture. For successful conversion, it is therefore absolutely necessary to ensure the stability of the target proteins even after relatively long incubation times (>1.5 h) in the translation mixture. For this purpose, the caspase inhibitor Z-VAD-FMK was added to the translation reaction. The multiple synthesis of the target protein was carried out as follows: the microsomes of the translation mixture incubated under standard conditions (27° C., 1.5 h) were pelleted with a centrifugation step at 16,000 g and resuspended in a new translation-active cell lysate without microsomes and incubated again for 1.5 h at 27° C. in the presence of the caspase inhibitor Z-VAD-FMK. In the present experimental example, the synthesis was repeated four times. Following each synthesis step, the yield of radioactively labeled protein in the translation mixture, the supernatant and the vesicular fraction were determined. In addition, 5 μl of the translation mix were precipitated in acetone and subsequently separated out electrophoretically. […] The addition of the caspase inhibitor to the translation reaction enables a synthesis of the target protein over a total of 6 h.
# [5] = dialysis system 48 h, +CI vs −CI
# [6] = from synthesis steps 1 to 4, in presence of Z-VAD-FMK
structure (smiles),measurement,setting,value
"COC(=O)C[C@H](NC(=O)[C@H](C)NC(=O)[C@@H](NC(=O)OCc1ccccc1)C(C)C)C(=O)CF [Z-VAD-FMK, benzyloxycarbonyl-Val-Ala-Asp-[O-methyl]-fluoromethylketone] (Cbz-Val-Ala-Asp(OMe)-CH2F)",increase of expression of ETB,[1]; [5],approximately 100%
same,increase of expression of Hb-EGF,[1]; [5],approximately 100%
same,increase of expression of bacteriorhodopsin,[1]; [5],approximately 100%
same,"increase of maximum achievable yields of membrane protein, average","[1]; dialysis system, addition of caspase inhibitor",approximately 100%
same,total protein quantity of Mel-Hb-EGF-eYFP,[2]; batch 48 h +CI,12.1 µg/mL
same,Mel-Hb-EGF-eYFP in the vesicular fraction of the lysate,[2]; batch 48 h −DTT +CI,6.5 µg/mL
same,total protein quantity of Mel-Hb-EGF-eYFP,[2]; dialysis 48 h +CI,47.6 µg/mL
same,increase in total protein quantity of Mel-Hb-EGF-eYFP,[2]; dialysis 48 h +CI vs batch 48 h +CI,300%
same,increase in total protein quantity of Mel-Hb-EGF-eYFP,[2]; dialysis 48 h +CI vs dialysis 48 h −CI,130%
same,Mel-Hb-EGF-eYFP in the vesicular fraction of the lysate,[2]; dialysis 48 h −DTT +CI,31.4 µg/mL
same,"fluorescence signal of SII-eYFP, fold more intense",[3],3.7 times
same,total time over which synthesis of the target protein is enabled,[4]; four repeated syntheses of 1.5 h at 27° C. in presence of caspase inhibitor,6 h
same,"increase of yield of target protein, total protein in the translation mixture",[4]; [6],110%
same,"increase of yield of target protein, vesicular fraction",[4]; [6],180%
